This note sets out measurements from patent US7144894B2, “Sulfonamide bicyclic compounds” (Bristol-Myers Squibb Company, priority 2004, dated 2006).

Usually chromatographic logP stands for lipophilicity estimated from chromatographic retention. A low value points to a more hydrophilic compound. Usually IC50 stands for the concentration that gives 50% inhibition.

Test system in one data set: not listed separately
Briefly: HPLC log P. In kind it is physicochemical. To be noted: pH 7.0.
The compound `CC(C)C[C@H](C(N)=O)N(Cc1ccc2[nH]ccc2c1)S(=O)(=O)c1ccc(Cl)cc1` [Example 2, 2R-(N-indol-5-ylmethyl-N-4-chlorophenylsulfonyl)amino-4-methyl-pentanamide] returned a chromatographic logP of 3.81. As to `Cc1cc2cc(CN([C@H](CC(C)C)C(N)=O)S(=O)(=O)c3ccc(Cl)cc3)ccc2[nH]1` [Example 4, 2R-(N-(2-methylindol-5-ylmethyl)-N-4-chlorophenylsulfonyl)amino-4-methyl-pentanamide], the chromatographic logP stood at 4.21.

For a further data set, the system named is β-amyloid peptide formation. Briefly: Inhibition of β-amyloid peptide formation in human H4 cells. In kind it is cell-based. To be noted: H4 cells stably transfected to overexpress HPLAP-APP fusion protein; 18 hrs incubation; Aβ in supernatant; read-out: Binding affinity (IC50 in nM). The protocol:
γ-Secretase inhibitors were also evaluated using in vitro assays based on the inhibition of Aβ formation in cultured cells. Cultured human cell lines, such as HEK293 and H4 cells, which express APP and γ-secretase activity or transfected derivative cell lines that overexpress wild-type APP, mutant APP, or APP fusion proteins will secrete Aβ peptides into the culture media that can be quantified as previously outlined (Dovey H. et al., J. Neurochem. 2001, 76, 173). The incubation of these cultured cells with γ-secretase inhibitors decreases the production of Aβ peptides. For instance, H4 cells stably transfected to overexpress the HPLAP-APP fusion protein described above were grown as above, detached, and adjusted to 2×10^5 cells/ml. 100 μl of the resulting suspension was then added to each well of a 96-well plate. After 4 hrs, the media was removed and replaced with 100 μl serum-free media containing various dilutions of the test compound. Plates were then incubated for 18 hrs at 37° C. and a 100 μl aliquot of the tissue culture supernatant was removed for determination of Aβ levels using time-resolved fluorescence of the homogenous sample as outlined above. The extent of Aβ inhibition was used to calculate the IC50 value for the test compound.
Representative compounds were evaluated in the above assay and were determined to inhibit Aβ formation.
Turning to `CC(C)C[C@H](C(N)=O)N(Cc1ccc2c(c1)CCN(Cc1ccccn1)C2=O)S(=O)(=O)c1ccc(Cl)cc1` [Example 13, 2R-(N-(1-oxo-2-(2-pyridylmethyl)-1,2,3,4-tetrahydroisoquinolin-6-ylmethylamino)-N-4-chlorophenylsulonyl)amino-4-methyl-pentanamide], the 50% inhibitory concentration (IC50) lay in the range of 0.25 to 50 nM. Same read-out and setting: the same measure for `CC(C)C[C@H](C(N)=O)N(Cc1ccc2c(c1)CCN(C)C2=O)S(=O)(=O)c1ccc(Cl)cc1` [Example 14, 2R-(N-(1-oxo-2-methyl-1,2,3,4-tetrahydroisoquinolin-6-ylmethylamino)-N-4-chlorophenylsulfonyl)amino-4-methyl-pentanamide]: 0.25 to 50 nM; for `CCCN1CCc2cc(CN([C@H](CC(C)C)C(N)=O)S(=O)(=O)c3ccc(Cl)cc3)ccc2C1=O` [Example 15, 2R-(N-(1-oxo-2-propyl-1,2,3,4-tetrahydroisoquinolin-6-ylmethylamino)-N-4-chlorophenylsulfonyl)amino-4-methyl-pentanamide]: 0.25 to 50 nM. Same read-out and setting: under `CCCCN1CCc2cc(CN([C@H](CC(C)C)C(N)=O)S(=O)(=O)c3ccc(Cl)cc3)ccc2C1=O` [Example 16, 2R-(N-(1-oxo-2-butyl-1,2,3,4-tetrahydroisoquinolin-6-ylmethylamino)-N-4-chlorophenylsulfonyl)amino-4-methyl-pentanamide] stands 0.25 to 50 nM; under `CC(C)C[C@H](C(N)=O)N(Cc1ccc2c(c1)CCN(Cc1ccccc1)C2=O)S(=O)(=O)c1ccc(Cl)cc1` [Example 17, 2R-(N-(1-oxo-2-benzyl-1,2,3,4-tetrahydroisoquinolin-6-ylmethylamino)-N-4-chlorophenylsulfonyl)amino-4-methyl-pentanamide], 0.25 to 50 nM; under `COCCN1CCc2cc(CN([C@H](CC(C)C)C(N)=O)S(=O)(=O)c3ccc(Cl)cc3)ccc2C1=O` [Example 18, 2R-(N-(1-oxo-2-(2-methoxyethyl)-1,2,3,4-tetrahydroisoquinolin-6-ylmethylamino)-N-4-chlorophenylsulonyl)amino-4-methyl-pentanamide], 0.25 to 50 nM. On to `CC(C)C[C@H](C(N)=O)N(Cc1ccc2c(c1)CCN(CC1CC1)C2=O)S(=O)(=O)c1ccc(Cl)cc1` [Example 19, 2R-(N-(1-oxo-2-cyclopropylmethyl-1,2,3,4-tetrahydroisoquinolin-6-ylmethylamino)-N-4-chlorophenylsulfonyl)amino-4-methyl-pentanamide], for which the concentration for half-maximal inhibition (IC50) is 0.25 to 50 nM. Still for that read-out and setting: the same measure for `CC(C)C[C@H](C(N)=O)N(Cc1ccc2c(c1)CCN(CC1CCC1)C2=O)S(=O)(=O)c1ccc(Cl)cc1` [Example 20, 2R-(N-(1-oxo-2-cyclobutylmethyl-1,2,3,4-tetrahydroisoquinolin-6-ylmethylamino)-N-4-chlorophenylsulfonyl)amino-4-methyl-pentanamide]: 0.25 to 50 nM; for `CC(C)N1CCc2cc(CN([C@H](CC3CC3)C(N)=O)S(=O)(=O)c3ccc(Cl)cc3)ccc2C1=O` [Example 23, 2R-(N-(1-oxo-2-(2-propyl)-1,2,3,4-tetrahydroisoquinolin-6-ylmethylamino)-N-4-chlorophenylsulfonyl)amino-3-cyclopropyl-propanamide]: 0.25 to 50 nM; for `CCC(CC)N1CCc2cc(CN([C@H](CC3CC3)C(N)=O)S(=O)(=O)c3ccc(Cl)cc3)ccc2C1=O` [Example 24, 2R-(N-(1-oxo-2-(3-pentyl)-1,2,3,4-tetrahydroisoquinolin-6-ylmethylamino)-N-4-chlorophenylsulfonyl)amino-3-cyclopropyl-propanamide]: 0.25 to 50 nM.

The same data set, now with this note: Homo sapiens; H4 cells stably transfected to overexpress HPLAP-APP fusion protein; 18 hrs incubation; Aβ in supernatant; read-out: Binding affinity (IC50 in nM).
On to `CC(C)C[C@H](C(N)=O)N(Cc1ccc2[nH]ccc2c1)S(=O)(=O)c1ccc(Cl)cc1` [Example 2, 2R-(N-indol-5-ylmethyl-N-4-chlorophenylsulfonyl)amino-4-methyl-pentanamide], for which the IC50 lay within 0.25 to 50 nM. Same read-out and setting: the same measure for `Cc1cc2cc(CN([C@H](CC(C)C)C(N)=O)S(=O)(=O)c3ccc(Cl)cc3)ccc2n1C(=O)OC(C)(C)C` [Example 3, 2R-(N-(1-t-Butyloxycarbonyl-2-methylindol-5-ylmethyl)-N-4-chlorophenylsulfonyl)amino-4-methyl-pentanamide]: 0.25 to 50 nM.

Take `Cc1cc2cc(CN([C@H](CC(C)C)C(N)=O)S(=O)(=O)c3ccc(Cl)cc3)ccc2[nH]1` [Example 4, 2R-(N-(2-methylindol-5-ylmethyl)-N-4-chlorophenylsulfonyl)amino-4-methyl-pentanamide]: the IC50 fell in the range of 0.25 to 50 nM. In the case of `CC(C)C[C@H](C(N)=O)N(Cc1ccc2c(c1)CCNC2=O)S(=O)(=O)c1ccc(Cl)cc1` [Example 5, 2R-(N-(1-oxo-1,2,3,4-tetrahydroisoquinolin-6-ylmethyl)-N-4-chlorophenylsulfonyl)amino-4-methyl-pentanamide], the IC50 fell in the range of 0.25 to 50 nM. The same measure, in the same setting: under `CCN1CCc2cc(CN([C@H](CC(C)C)C(N)=O)S(=O)(=O)c3ccc(Cl)cc3)ccc2C1=O` [Example 6, 2R-(N-(1-oxo-2-ethyl-1,2,3,4-tetrahydroisoquinolin-6-ylmethylamino)-N-4-chlorophenylsulfonyl)amino-4-methyl-pentanamide] stands 0.25 to 50 nM; under `CC(C)C[C@H](C(N)=O)N(Cc1ccc2c(c1)CCC(=O)N2)S(=O)(=O)c1ccc(Cl)cc1` [Example 7, 2R-(N-(2-oxo-1,2,3,4-tetrahydroquinolin-6-ylmethyl)-N-4-chlorophenylsulfonyl)amino-4-methyl-pentanamide], 50 to 500 nM; under `CC(C)C[C@H](C(N)=O)N(Cc1ccc2c(c1)CCN2)S(=O)(=O)c1ccc(Cl)cc1` [Example 9, 2R-(N-indolin-5-yl-N-4-chlorophenylsulfonyl)methylamino-4-methyl-pentanamide], 0.25 to 50 nM. Same read-out and setting: under `CC(C)C[C@H](C(N)=O)N(Cc1ccc2c(c1)CCN2C)S(=O)(=O)c1ccc(Cl)cc1` [Example 10, 2R-(N-1-methylindolin-5-yl-N-4-chlorophenylsulfonyl)methylamino-4-methyl-pentanamide] stands 0.25 to 50 nM. For `CC(C)C[C@H](C(N)=O)N(Cc1ccc2c(c1)CCN2C(=O)C1CCCC1)S(=O)(=O)c1ccc(Cl)cc1` [Example 12, 2R-(N-1-cyclopentylcarbonylindolin-5-yl-N-4-chlorophenylsulfonyl)methylamino-4-methyl-pentanamide], the IC50 was in the range of 0.25 to 50 nM. On the same count and under the same terms, under `CCN1CCc2cc(CN([C@H](CC3CC3)C(N)=O)S(=O)(=O)c3ccc(Cl)cc3)ccc2C1=O` [Example 21, 2R-(N-(1-oxo-2-ethyl-1,2,3,4-tetrahydroisoquinolin-6-ylmethylamino)-N-4-chlorophenylsulfonyl)amino-3-cyclopropyl-propanamide] stands 0.25 to 50 nM; under `CCN1CCc2cc(CN([C@H](CC(F)F)C(N)=O)S(=O)(=O)c3ccc(Cl)cc3)ccc2C1=O` [Example 22, 2R-(N-(1-oxo-2-ethyl-1,2,3,4-tetrahydroisoquinolin-6-ylmethylamino)-N-4-chlorophenylsulfonyl)amino-4,4-difluorobutanamide], 0.25 to 50 nM.
